Experimental data reported in US4939137A, “Ring-fused thienopyrimidinedione derivatives” (Ortho Pharmaceutical Corporation, priority 1989, dated 1990).
pIC50: −log10 of the molar value.

Assays:
[1] = tested on: spontaneously hypertensive rats (SHR); assay: Antihypertensive Activity: Spontaneously Hypertensive Rat (SHR test); assay type: in vivo, rat (male spontaneously hypertensive); details: p.o. or i.v.; for SHR TEST: change in mean arterial blood pressure: dose 2.5 mpk; for change in vivo at 5 mg/kg: Rattus norvegicus, dose 5 mpk, read-out: SHR TEST: change in blood pressure (delta % of control)
Experimental: Mean arterial pressure and heart rate were monitored from directly cannulated animals. Compounds were administered p.o. or i.v. and blood pressure was recorded for various time intervals post dosing.
Blood pressure changes (expressed as change in control pressure and reported as delta % of control for each animal) were analyzed statistically using a one way analysis of variance with a Dunnett's test. P values less than 0.05 were considered significant.

5HT1A receptor = molecular target: T1, 5HT1A receptor (Rattus norvegicus, UniProt P19327); assay: Brain Serotonin 5HT1A Radioreceptor Assay (3H-80H-DPAT); assay type: binding; details: rat frontal cortex membranes, 10 minutes, 37° C., read-out: RECEPTOR BINDING 5HT-1A (IC50)
T1 construct: Membrane fragments were prepared from the frontal cortex dissected from brains obtained from female rats; from tissue; host or cells: frontal cortex, female rats
T1 sequence (P19327 1-422): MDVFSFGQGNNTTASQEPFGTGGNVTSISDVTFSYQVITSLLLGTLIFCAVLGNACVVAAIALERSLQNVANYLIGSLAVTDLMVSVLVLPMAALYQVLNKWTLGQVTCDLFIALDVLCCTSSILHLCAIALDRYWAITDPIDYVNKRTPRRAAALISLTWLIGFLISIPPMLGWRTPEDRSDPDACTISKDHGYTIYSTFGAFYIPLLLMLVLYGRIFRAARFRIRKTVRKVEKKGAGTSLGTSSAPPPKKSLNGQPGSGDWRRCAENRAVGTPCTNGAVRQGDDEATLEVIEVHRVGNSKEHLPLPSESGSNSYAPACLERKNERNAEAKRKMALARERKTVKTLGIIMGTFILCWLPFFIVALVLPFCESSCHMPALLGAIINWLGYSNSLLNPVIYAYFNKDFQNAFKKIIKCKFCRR
Experimental: Membrane fragments were prepared from the frontal cortex dissected from brains obtained from female rats (~150 g). The 5HT1A sites were labeled with ^3 H-80H-dipropylaminotetralin (^3 H-80H-DPAT). Membrane fragments, ^3 H-80H-DPAT and an unlabeled test compound were incubated for 10 minutes at 37° C. The tubes were then placed in an ice bath for an additional 10 minutes. Compound bound to the receptor site was separated from the remaining unbound compound by vacuum filtration.
The ability of a nonlabeled compound to compete with ^3 H-80H-DPAT for binding sites was a measure of the compound's affinity for the 5HT1A receptor. Specific binding was determined by the difference between total counts bound and counts bound in the presence of 10^-5 M serotonin.
Data are presented at the IC50, the concentration of nonlabeled compound required to displace 50% of the ^3 H-80H-DPAT specifically bound to 5HT1A binding sites.

[2] = molecular target: alpha-1 adrenergic receptor; assay: Brain Alpha-1 Radioreceptor Assay (3H-prazosin); details: guinea pig brain membranes, 30 minutes, 30° C., read-out: RECEPTOR BINDING ALPHA-1 (IC50)
Experimental: Membrane fragments were prepared from the brains of mature female guinea pigs after removal of the corpus striata. The alpha-1 adrenergic receptor sites were labeled with ^3 H-prazosin. Membrane fragments, ^3 H-prazosin and an unlabeled test compound were incubated for 30 minutes at 30° C. Compound bound to the receptor site was separated from the remaining unbound radioligand by vacuum filtration. Specific binding was determined by the difference between total counts bound and counts bound in the presence of 10-^5 M phentolamine.

5HT2 receptor = molecular target: T2, 5HT2 receptor (Rattus norvegicus, UniProt P14842); assay: Brain Serotonin 5HT2 Radioreceptor Assay (3H-ketanserin); assay type: binding; details: rat frontal cortex membranes, 15 minutes, 37° C., read-out: RECEPTOR BINDING 5HT-2 (IC50)
T2 construct: Membrane fragments were prepared from the frontal cortex dissected from brains obtained from female rats; from tissue; host or cells: frontal cortex, female rats
T2 sequence (P14842 whole entry, the tested form may be a part): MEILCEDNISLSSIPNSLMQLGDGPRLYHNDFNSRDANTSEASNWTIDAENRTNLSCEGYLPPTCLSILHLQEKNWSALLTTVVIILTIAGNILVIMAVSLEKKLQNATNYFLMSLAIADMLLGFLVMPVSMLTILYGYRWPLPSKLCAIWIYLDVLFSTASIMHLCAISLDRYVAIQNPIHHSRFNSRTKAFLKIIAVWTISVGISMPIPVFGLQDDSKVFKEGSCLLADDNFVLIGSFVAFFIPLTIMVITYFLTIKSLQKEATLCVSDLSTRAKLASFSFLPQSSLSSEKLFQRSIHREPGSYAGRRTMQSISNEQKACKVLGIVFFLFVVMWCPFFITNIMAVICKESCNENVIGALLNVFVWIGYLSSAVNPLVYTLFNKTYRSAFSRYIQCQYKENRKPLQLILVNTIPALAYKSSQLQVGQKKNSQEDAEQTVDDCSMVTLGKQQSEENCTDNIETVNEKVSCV
Experimental: Membrane fragments were prepared from the frontal cortex dissected from brains obtained from female rats (~150 g). The 5HT2 sites were labeled with ^3 H-ketanserin. Membrane fragments, ^3 H-ketanserin and an unlabeled test compound were incubated for 15 minutes at 37° C. Compound bound to the receptor site was separated from the remaining unbound compound by vacuum filtration.
The ability of a nonlabeled compound to compete with ^3 H-ketanserin for binding sites was a measure of the compound's affinity for the 5HT2 receptor. Specific binding was determined by the difference between total counts bound and counts bound in the presence of 10^-6 M methysergide.
Data are presented as the IC50, the concentration of nonlabeled compound required to displace 50% of the ^3 H-ketanserin specifically bound to 5HT2 binding sites.

[3] = tested on: alpha adrenergic receptor; assay: Alpha-1 Adrenergic Blockage: Inhibition of Phenylephrine-Induced Increases in Blood Pressure in the Anesthetized Dog; assay type: in vivo; details: i.v., phenylephrine 10 μg/kg
Source text: Dogs were anesthetized and bilaterally vagotomized. A femoral artery and vein were cannulated for detection of diastolic blood pressure and drug administration, respectively. Percent inhibition of alpha adrenergic receptor antagonism was quantified by determining dose-response (increase in diastolic pressure) relationship of phenylephrine before and after various doses of the antagonist.

Row | SMILES | SHR TEST: change in mean arterial blood pressure [1] | pIC50 (5HT1A receptor) | pIC50 [2] | pIC50 (5HT2 receptor) | % INHIB OF PHENYLEPHRINE RESPONSE ([3]; dose 0.03 mpk) | change in vivo at 5 mg/kg [1] | % INHIB OF PHENYLEPHRINE RESPONSE ([3]; dose 0.003 mpk)
1 | COc1ccccc1N1CCN(CCn2c(=O)c3csc4c3n(c2=O)CCC4=O)CC1 [Example 1, 3,4,5,7,8,9-Hexahydro-4-[2-[4-(2-methoxyphenyl)piperazin-1-yl]ethyl]thieno[4,3,2-de]pyrido[1,2c]pyrimidine-3,5,9-trione] | -59 mm Hg | 7.60 | 7.74 | 5.19 | 86% |  | 
2 | COc1ccccc1N1CCN(CCn2c(=O)c3csc4c3n(c2=O)CCC4O)CC1 (stereo not shown) [Example 21, 3,4,5,7,8,9-Hexahydro-9-hydroxy-4-[2-[4-(2-methoxyphenyl)piperazin-1-yl]ethyl]thieno[4,3,2-de]pyrido[1,2-c]pyrimidine-3,5-dione] |  |  |  |  | 96% | -24.7% | 
3 | COc1ccccc1N1CCN(CCn2c(=O)c3csc4c3n(c2=O)CCNC4=O)CC1 [Example 25] | -58.0 mm Hg | 7.32 | 7.35 | 5.70 |  |  | 94%
4 | COc1ccccc1N1CCN(CCn2c(=O)c3csc4c3n(c2=O)CC=C4)CC1 [Example 24, 3,4,5,7-Tetrahydro-4-[2-[4-(2-methoxyphenyl)piperazin-1-yl]ethyl]thieno[4,3,2-de]pyrido[1,2-c]pyrimidine-3,5-dione] | -59.0 mm Hg | 6.92 | 7.64 | 5.70 | 98% |  | 
5 | COc1ccccc1N1CCN(CCn2c(=O)c3csc4c3n(c2=O)CCC4OC(=O)c2ccccc2)CC1 (stereo not shown) [Example 35, 9-Benzoyloxy-3,4,5,7,8,9-hexahydro-4-[2-[4-(2-methoxyphenyl)piperazin-1-yl]ethyl]thieno[4,3,2-de]pyrido[1,2-c]pyrimidine-3,5-dione] |  | 6.89 | 10.82 | 5.82 | 89% | -16.6% | 
